The target in this experiment is Beta-lactamase TEM (Escherichia coli) (UniProt P62593). Description: In vitro inhibitory activity against Beta-lactamase TEM-1 of class A enzyme.
Beta-lactamase TEM (Escherichia coli), sequence (P62593 whole entry, looked up): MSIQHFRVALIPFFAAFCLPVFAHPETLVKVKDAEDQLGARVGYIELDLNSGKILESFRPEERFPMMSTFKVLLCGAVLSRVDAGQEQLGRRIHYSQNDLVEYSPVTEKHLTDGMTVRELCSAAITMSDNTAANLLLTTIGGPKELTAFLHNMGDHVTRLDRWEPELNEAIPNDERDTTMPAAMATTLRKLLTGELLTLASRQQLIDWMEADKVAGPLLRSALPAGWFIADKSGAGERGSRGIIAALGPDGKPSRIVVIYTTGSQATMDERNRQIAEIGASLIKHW
The term IC50 denotes the concentration needed to halve the response being measured. Higher therefore signals lower potency. As to `CC1(C)[C@H](C(=O)O)N2C(=O)[C@@]3(C[C@H]3OC3CCCCC3)[C@H]2S1(=O)=O` [2'-(cyclohexyloxy)-3,3-dimethyl-7-oxo-4-thia-1-azaspiro[bicyclo[3.2.0]heptane-6,1'-cyclopropane]-2-carboxylic acid 4,4-dioxide], the half-maximal inhibitory concentration (IC50) was over 13000 nM.

`CC(C)(C)[Si](C)(C)O[C@H]1C[C@@]12C(=O)N1[C@@H](C(=O)O)C(C)(C)S(=O)(=O)[C@@H]12` [(2R,5R,6R)-2'-(tert-Butyl-dimethyl-silanyl-oxy)-3,3-dimethyl-7-oxo-4-thia-1-azaspiro[bicyclo[3.2.0]heptane-6,1'-cyclopropane]-2-carboxylic acid 4,4-dioxide] came in with an IC50 of 17000 nM.

Take `CC1(C)[C@H](C(=O)O)N2C(=O)[C@]3(C[C@@H]3OC3CCCCC3)[C@H]2S1(=O)=O` [(2S,5R,6R)-2'-(cyclohexyloxy)-3,3-dimethyl-7-oxo-4-thia-1-azaspiro[bicyclo[3.2.0]heptane-6,1'-cyclopropane]-2-carboxylic acid 4,4-dioxide]: inhibition was half-maximal at 510 nM (IC50).

Take `CC(C)(C)[Si](C)(C)O[C@@H]1C[C@@]12C(=O)N1[C@@H](C(=O)O)C(C)(C)S(=O)(=O)[C@@H]12` [(2S,5R,6R)-2'-(tert-Butyl-dimethyl-silanyl-oxy)-3,3-dimethyl-7-oxo-4-thia-1-azaspiro[bicyclo[3.2.0]heptane-6,1'-cyclopropane]-2-carboxylic acid 4,4-dioxide]: it took 12000 nM to reach half-maximal inhibition (IC50).

As to `CC(C)(C)[Si](C)(C)O[C@H]1C[C@]12C(=O)N1[C@@H](C(=O)O)C(C)(C)S(=O)(=O)[C@@H]12` [(2S,5R,6R)-2'-(tert-Butyl-dimethyl-silanyl-oxy)-3,3-dimethyl-7-oxo-4-thia-1-azaspiro[bicyclo[3.2.0]heptane-6,1'-cyclopropane]-2-carboxylic acid 4,4-dioxide], the IC50 was 650 nM.

`CC1(C)[C@H](C(=O)O)N2C(=O)[C@@]3(C[C@@H]3OC3CCCCC3)[C@H]2S1(=O)=O` [(2S,5R,6S)-2'-(cyclohexyloxy)-3,3-dimethyl-7-oxo-4-thia-1-azaspiro[bicyclo[3.2.0]heptane-6,1'-cyclopropane]-2-carboxylic acid 4,4-dioxide] returned a half-inhibitory concentration (IC50) of 1700 nM.
